Measurements reported in patent US9828338B2, “Carbamate derivatives of lactam based N-acylethanolamine acid amidase (NAAA) inhibitors” (The Regents of the University of California, priority 2013, dated 2017).

These compounds were tested against T1, r-NAAA (Rattus norvegicus, UniProt Q5KTC7) (assay: UPLC/MS r-NAAA assay). Settings: not given.
T1 construct: Lysosomal NAAA protein preparation was obtained by homogenizing male Sprague-Dawley rat lungs; tissue Charles River (animals); host or cells: male Sprague-Dawley rat lung, soluble lysosomal fraction
T1 sequence (Q5KTC7 34-362): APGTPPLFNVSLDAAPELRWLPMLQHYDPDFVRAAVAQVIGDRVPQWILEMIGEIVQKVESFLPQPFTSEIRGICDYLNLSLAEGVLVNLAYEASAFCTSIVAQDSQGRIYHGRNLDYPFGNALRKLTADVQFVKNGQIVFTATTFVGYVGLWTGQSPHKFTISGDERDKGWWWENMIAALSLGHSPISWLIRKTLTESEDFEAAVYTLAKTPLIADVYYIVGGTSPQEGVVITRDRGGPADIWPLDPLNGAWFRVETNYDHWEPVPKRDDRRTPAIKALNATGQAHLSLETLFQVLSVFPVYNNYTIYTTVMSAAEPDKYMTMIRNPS
Assay type: biochemical
Protocol: Lysosomal NAAA protein preparation was obtained by homogenizing male Sprague-Dawley rat lungs (Charles River) in 20 mM Tris-HCl buffer pH 7.4 containing 0.32M sucrose. […] Supernatants were then centrifuged at 12,000 xg for 30 min at 4° C. Pellets were then resuspended in PBS pH 7.4 and subjected to a freeze/thaw cycle at −80° C. The suspension was finally centrifuged at 105,000×g for 1 h at 4° C. The supernatant was then used in the enzymatic assay.
NAAA protein preparation was pre-incubated with various concentrations of test compounds or vehicle control in 100 mM NaH2PO4/Citrate buffer, 1% Triton-X, 3 mM DTT (pH 4.5) for 30 min at 37° C. Samples were then incubated with heptadecenoylethanolamide (50 μM, Avanti Polar Lipids) at 37° C. for 30 min. The reaction was terminated by addition of cold methanol containing heptadecanoic acid (NuCheck Prep) as internal standard. Samples were then analyzed by UPLC/MS (Acquity, Waters). […] The column temperature was 40° C. Electrospray ionization was in the negative mode, capillary voltage was 0.5 kV, cone voltage was […], desolvation temperature was 500° C. N2 was used as drying gas at a flow rate of 1000 L/hour and a temperature of 500° C. […] Calibration curves were generated using commercial heptadecenoic acid (NuCheck Prep) Inhibition of NAAA activity was calculated as reduction of heptadecenoic acid in the samples compared to vehicle controls. IC50 values were calculated by non-linear regression analysis of log [concentration]/inhibition curves using GraphPad Prism 5 (GraphPad Software Inc., CA—USA) applying a standard slope curve fitting.
Work on O=C(N[C@H]1CNC1=O)Oc1ccc(Cc2ccccc2)cc1 [Example 33, (4-Benzylphenyl)-N-[(3S)-2-oxoazetidin-3-yl]-carbamate] yielded an IC50 of 21 µM.
Compound Cc1cccc(-c2ccc(COC(=O)N[C@H]3CNC3=O)cc2C)c1 [Example 42, [3-Methyl-4-(m-tolyl)-phenyl]-methyl-N-[(3S)-2-oxoazetidin-3-yl]-carbamate] has an IC50 of 0.62 µM.
Compound O=C(N[C@H]1CNC1=O)OCc1ccc(OC2CCCCC2)cc1 [Example 64, [4-(Cyclohexoxy)-phenyl]-methyl-N-[(3S)-2-oxoazetidin-3-yl]-carbamate] has an IC50 of 0.16 µM.
Work on O=C(N[C@H]1CNC1=O)OCC/C=C/c1ccccc1 [Example 11, [(E)-4-Phenylbut-3-enyl]-N-[(3S)-2-oxoazetidin-3-yl]-carbamate] yielded an IC50 of 6.62 µM.
With C[C@@H]1NC(=O)[C@H]1NC(=O)OCCCCCc1ccccc1 [Example 75, 5-Phenylpentyl-N-[(2S,3S)-2-methyl-4-oxo-azetidin-3-yl]-carbamate] the IC50 was 2.8 µM.
For O=C(N[C@H]1CNC1=O)OCCc1ccc(-c2ccccc2)cc1 [Example 36, 2-(4-Phenylphenyl)-ethyl-N-[(3S)-2-oxoazetidin-3-yl]-carbamate], the IC50 was 5.05 µM.
In the case of CCc1ccc(CCCCOC(=O)N[C@H]2CNC2=O)cc1 [Example 39, 4-(4-Ethylphenyl)-butyl-N-[(3S)-2-oxoazetidin-3-yl]-carbamate], the IC50 is reported as 1 µM.
Compound O=C(N[C@H]1CNC1=O)OCCCCC1CCOCC1 [Example 48, 4-Tetrahydropyran-4-yl-butyl-N-[(3S)-2-oxoazetidin-3-yl]-carbamate] has an IC50 of 12.6 µM.
In the case of O=C(N[C@@H]1CNC1=O)OCCCCCc1ccccc1 [Example 4, 5-Phenylpentyl-N-[(3R)-2-oxoazetidin-3-yl]-carbamate], the IC50 is reported as 18.7 µM.
O=C(N[C@H]1CNC1=O)OCC/C=C\c1ccccc1 [Example 12, [(Z)-4-Phenylbut-3-enyl]-N-[(3S)-2-oxoazetidin-3-yl]-carbamate] was tested, and the IC50 was 1.6 µM.
Cc1cccc(-c2ccc(COC(=O)N[C@H]3CNC3=O)cc2)c1 [Example 43, [4-(m-Tolyl)-phenyl]-methyl-N-[(3S)-2-oxoazetidin-3-yl]-carbamate] gave an IC50 of 0.87 µM.
Compound CC(C)(C)c1ccc(COC(=O)N[C@H]2CNC2=O)cc1 [Example 57, (4-tert-Butylphenyl)-methyl-N-[(3S)-2-oxoazetidin-3-yl]-carbamate] has an IC50 of 0.18 µM.
In the case of O=C(N[C@H]1CNC1=O)OC1CCC(Cc2ccccc2)CC1 (mixture of isomers) [Example 7, (1s,4R) and (1r,4S)-(4-Benzylcyclohexyl)-N-[(3S)-2-oxoazetidin-3-yl]-carbamate], the IC50 is reported as 6.6 µM.
Work on CCCCCCCOC(=O)N[C@@H]1CNC1=O [Example 2, Heptyl-N-[(3R)-2-oxoazetidin-3-yl]-carbamate] yielded an IC50 of 66 µM.
In the case of O=C(N[C@H]1CNC1=O)OCCCCCC1CCCCC1 [Example 19, 5-Cyclohexylpentyl-N-[(3S)-2-oxoazetidin-3-yl]-carbamate], the IC50 is reported as 0.058 µM.
CC(C)(CCCCc1ccccc1)OC(=O)N[C@H]1CNC1=O [Example 16, (1,1-Dimethyl-5-phenyl-pentyl)-N-[(3S)-2-oxoazetidin-3-yl]-carbamate] was tested, and the IC50 was 8 µM.
Work on O=C(N[C@H]1CNC1=O)OCc1cccc(Cc2ccccc2)c1 [Example 32, (3-Benzylphenyl)-methyl-N-[(3S)-2-oxoazetidin-3-yl]-carbamate] yielded an IC50 of 1.2 µM.
Compound CCCCCCOC(=O)N[C@H]1CNC1=O [Example 23, Hexyl-N-[(3S)-2-oxoazetidin-3-yl]-carbamate] has an IC50 of 1.6 µM.
Cc1cccc(C)c1CCCCOC(=O)N[C@H]1CNC1=O [Example 14, 4-(2,6-Dimethylphenyl)-butyl-N-[(3S)-2-oxoazetidin-3-yl]-carbamate] was tested, and the IC50 was 8.1 µM.
Work on Cc1cc(COC(=O)N[C@H]2CNC2=O)ccc1-c1ccccc1 [Example 44, (3-Methyl-4-phenyl-phenyl)-methyl-N-[(3S)-2-oxoazetidin-3-yl]-carbamate] yielded an IC50 of 0.59 µM.
With CC(CCCCc1ccccc1)OC(=O)N[C@H]1CNC1=O (mixture of isomers) [Example 15, [(1S)- and (1R)-(1-Methyl-5-phenyl-pentyl)]-N-[(3S)-2-oxoazetidin-3-yl]-carbamate] the IC50 was 3.9 µM.
With O=C(N[C@H]1CNC1=O)OCCOCC1CCCCC1 [Example 49, 2-(Cyclohexylmethoxy)-ethyl-N-[(3S)-2-oxoazetidin-3-yl]-carbamate] the IC50 was 1.65 µM.
C[C@@H]1NC(=O)[C@@H]1NC(=O)OCCCCC1CCCCC1 [Example 83, 4-Cyclohexylbutyl-N-[(2S,3R)-2-methyl-4-oxo-azetidin-3-yl]-carbamate] was tested, and the IC50 was 4.7 µM.
With O=C(N[C@H]1CNC1=O)OCCCCc1ccc(C(F)(F)F)cc1 [Example 38, 4-[4-(Trifluoromethyl)-phenyl]-butyl-N-[(3S)-2-oxoazetidin-3-yl]-carbamate] the IC50 was 0.67 µM.

Same assay, conditions: @ 30 μM; read-out: r-NAAA UPLC/MS assay % inhib.
Work on C#CCCOC(=O)N[C@H]1CNC1=O [Example 65, But-3-ynyl-N-[(3S)-2-oxoazetidin-3-yl]-carbamate] yielded an inhibition at 30 µM of 20%.

Same assay, conditions: @100 μM
C[C@H]1NC(=O)[C@@H]1NC(=O)OCc1ccc(-c2ccccc2)cc1 [Example 81, (4-Phenylphenyl)-methyl-N-[(2R,3R)-2-methyl-4-oxo-azetidin-3-yl]-carbamate] was tested, and the “r-NAAA UPLC/MS assay (n.a.)” value was “n.a. (n.a. = <10% inhib. @100 μM)”.
For O=C(N[C@H]1CNC1=O)OCCCCc1ccccn1 [Example 37, 4-(2-Pyridyl)-butyl-N-[(3S)-2-oxoazetidin-3-yl]-carbamate], the “r-NAAA UPLC/MS assay (n.a.)” value was “n.a. (n.a. = <10% inhib. @100 μM)”.
With CC1(C)NC(=O)[C@@H]1NC(=O)OCCCCC1CCCCC1 [Example 89, 4-Cyclohexylbutyl-N-[(3R)-2,2-dimethyl-4-oxo-azetidin-3-yl]-carbamate] the “r-NAAA UPLC/MS assay (n.a.)” value was “n.a. (n.a. = <10% inhib. @100 μM)”.
In the case of CC1(C)NC(=O)[C@@H]1NC(=O)OCc1ccc(-c2ccccc2)cc1 [Example 90, (4-Phenylphenyl)-methyl-N-[(3R)-2,2-dimethyl-4-oxo-azetidin-3-yl]-carbamate], the “r-NAAA UPLC/MS assay (n.a.)” value is reported as “n.a. (n.a. = <10% inhib. @100 μM)”.
CC1(C)NC(=O)[C@@H]1NC(=O)OCc1ccc(C2CCCCC2)cc1 [Example 91, (4-Cyclohexylphenyl)-methyl-N-[(3R)-2,2-dimethyl-4-oxo-azetidin-3-yl]-carbamate] was tested, and the “r-NAAA UPLC/MS assay (n.a.)” value was “n.a. (n.a. = <10% inhib. @100 μM)”.
For CC1(C)NC(=O)[C@H]1NC(=O)OCc1ccc(-c2ccccc2)cc1 [Example 87, (4-Phenylphenyl)-methyl-N-[(3S)-2,2-dimethyl-4-oxo-azetidin-3-yl]-carbamate], the “r-NAAA UPLC/MS assay (n.a.)” value was “n.a. (n.a. = <10% inhib. @100 μM)”.

Same assay, conditions: @100 μM; read-out: r-NAAA UPLC/MS assay % inhib.
Work on CC1(C)NC(=O)[C@H]1NC(=O)OCCCCC1CCCCC1 [Example 86, 4-Cyclohexylbutyl-N-[(3S)-2,2-dimethyl-4-oxo-azetidin-3-yl]-carbamate] yielded an inhibition at 100 µM of 18%.

Same assay, conditions: read-out: r-NAAA UPLC/MS assay % inhib.
O=C(N[C@H]1CNC1=O)OCc1ccc(-c2ccncc2)cc1 [Example 45, [4-(4-Pyridyl)-phenyl]-methyl-N-[(3S)-2-oxoazetidin-3-yl]-carbamate] showed an inhibition at 30 µM of 48%.
Work on O=C(N[C@H]1CNC1=O)OCc1cccc(-c2ccccc2)c1 [Example 62, (3-Phenylphenyl)-methyl-N-[(3S)-2-oxoazetidin-3-yl]-carbamate] yielded an inhibition at 30 µM of 45%.
In the case of C[C@H]1NC(=O)[C@H]1NC(=O)OCc1ccc(C2CCCCC2)cc1 [Example 78, (4-Cyclohexylphenyl)-methyl-N-[(2R,3S)-2-methyl-4-oxo-azetidin-3-yl]-carbamate], the inhibition at 100 µM is reported as 55%.
